Measured values as given in US20240066136A1, “MODIFIED PROTEINS AND PROTEIN DEGRADERS” (Cullgen (Shanghai), Inc., priority 2020, published 2024).

Tests used:
CDK6 = CDK6 (Homo sapiens (Human), UniProt Q00534); assay: Immunoblot of CDK6 protein in Calu-1 cells; format: cell-based; settings: 1 μM, 16 hours after administration
Description: (§1) Additional heterobifunctional compounds were designed and tested for their ability to target and degrade another two target proteins, CDK4 and CDK6. Calu-1 cells that express CDK4/6 proteins were treated with heterobifunctional compounds disclosed herein (D-44 to D-49) at indicated concentrations for 16 hours. Cells were collected, lysed and subject to immunoblotting using an antibody specific to CDK4, CDK6 or phosphorylated Rb proteins. Tubulin was included as the loading control. DMSO treatment was used as the negative control. […] In addition, Calu-1 cells were treated with 1 μM D-48 or D-49 for an indicated period of time. Subsequently, changes in CDK4 and CDK6 protein levels were measured by immunoblotting. […] These experiments highlight the ability of DDB1 binder derived heterobifunctional compounds to degrade multiple different target proteins, including but not limited to epigenetic target proteins, such as CBP and p300, and kinases, such as CDK4 and CDK6.

CDK4 = CDK4 (Homo sapiens (Human), UniProt P11802); assay: Immunoblot of CDK4 protein in Calu-1 cells; format: cell-based; settings: 1 μM, 16 hours after administration
CDK4, sequence (P11802 whole entry): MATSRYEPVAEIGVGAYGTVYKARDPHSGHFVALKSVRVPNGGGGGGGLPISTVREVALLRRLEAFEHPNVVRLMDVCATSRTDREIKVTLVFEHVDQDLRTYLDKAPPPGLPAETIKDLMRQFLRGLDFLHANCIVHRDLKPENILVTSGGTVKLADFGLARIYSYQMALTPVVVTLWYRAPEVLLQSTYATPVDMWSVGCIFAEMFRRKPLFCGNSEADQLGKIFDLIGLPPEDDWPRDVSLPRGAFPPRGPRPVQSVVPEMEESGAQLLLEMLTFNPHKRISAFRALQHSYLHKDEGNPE
Description: as §1

Human DDB1 = Human DDB1 (Homo sapiens (Human), UniProt Q16531); assay: Surface plasmon resonance (SPR) binding assay to immobilized His-DDB1; settings: SPR, DDB1 binding moieties with linkers and/or target protein binding moiety; read-out: Binding (Kd)
Human DDB1, sequence (Q16531 whole entry): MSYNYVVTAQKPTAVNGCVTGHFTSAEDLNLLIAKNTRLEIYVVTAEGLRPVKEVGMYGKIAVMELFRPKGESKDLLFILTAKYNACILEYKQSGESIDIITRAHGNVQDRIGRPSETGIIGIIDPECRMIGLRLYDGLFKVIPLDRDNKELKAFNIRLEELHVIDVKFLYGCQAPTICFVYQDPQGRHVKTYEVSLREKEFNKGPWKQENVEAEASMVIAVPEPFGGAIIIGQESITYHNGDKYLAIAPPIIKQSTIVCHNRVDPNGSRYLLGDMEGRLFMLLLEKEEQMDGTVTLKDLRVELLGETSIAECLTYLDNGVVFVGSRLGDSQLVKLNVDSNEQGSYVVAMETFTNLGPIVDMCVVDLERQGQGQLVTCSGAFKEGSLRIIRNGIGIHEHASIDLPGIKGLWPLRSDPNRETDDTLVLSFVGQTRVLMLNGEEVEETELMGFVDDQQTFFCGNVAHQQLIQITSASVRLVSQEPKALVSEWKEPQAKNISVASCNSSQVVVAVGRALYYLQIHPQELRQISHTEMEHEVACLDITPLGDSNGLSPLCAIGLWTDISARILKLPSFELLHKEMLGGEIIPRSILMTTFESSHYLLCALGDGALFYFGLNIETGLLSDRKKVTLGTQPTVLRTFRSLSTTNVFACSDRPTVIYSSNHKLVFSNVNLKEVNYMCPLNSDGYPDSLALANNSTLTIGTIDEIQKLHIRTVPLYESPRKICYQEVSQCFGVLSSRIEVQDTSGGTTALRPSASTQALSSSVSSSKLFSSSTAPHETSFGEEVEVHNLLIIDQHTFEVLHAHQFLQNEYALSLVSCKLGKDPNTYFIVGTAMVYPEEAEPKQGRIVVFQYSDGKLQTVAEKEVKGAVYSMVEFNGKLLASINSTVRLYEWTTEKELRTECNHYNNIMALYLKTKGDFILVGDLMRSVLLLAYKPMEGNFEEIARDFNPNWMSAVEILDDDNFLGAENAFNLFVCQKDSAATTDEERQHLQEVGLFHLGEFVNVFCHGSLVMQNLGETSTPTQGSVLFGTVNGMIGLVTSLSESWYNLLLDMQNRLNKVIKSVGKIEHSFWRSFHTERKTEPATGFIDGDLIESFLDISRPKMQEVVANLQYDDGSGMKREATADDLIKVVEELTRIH
Method in brief: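 Baculovirus-expressed His-DDB1 (High5 cells) amine-coupled to 11,000–13,000 RU on a CM5 chip; compounds injected in multi-cycle format without regeneration at 25° C in HBS-EP pH 7.4 (120 s association/dissociation). Double-referenced, solvent-corrected data fit to steady-state affinity model for KD.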

P300 [1] = target: T1, P300 (Homo sapiens (Human), UniProt Q09472); assay: Immunoblot of P300 in Calu-1 cells with co-administered proteasome, neddylation or DDB1-ligand competitor; format: cell-based
T1 sequence (Q09472 whole entry): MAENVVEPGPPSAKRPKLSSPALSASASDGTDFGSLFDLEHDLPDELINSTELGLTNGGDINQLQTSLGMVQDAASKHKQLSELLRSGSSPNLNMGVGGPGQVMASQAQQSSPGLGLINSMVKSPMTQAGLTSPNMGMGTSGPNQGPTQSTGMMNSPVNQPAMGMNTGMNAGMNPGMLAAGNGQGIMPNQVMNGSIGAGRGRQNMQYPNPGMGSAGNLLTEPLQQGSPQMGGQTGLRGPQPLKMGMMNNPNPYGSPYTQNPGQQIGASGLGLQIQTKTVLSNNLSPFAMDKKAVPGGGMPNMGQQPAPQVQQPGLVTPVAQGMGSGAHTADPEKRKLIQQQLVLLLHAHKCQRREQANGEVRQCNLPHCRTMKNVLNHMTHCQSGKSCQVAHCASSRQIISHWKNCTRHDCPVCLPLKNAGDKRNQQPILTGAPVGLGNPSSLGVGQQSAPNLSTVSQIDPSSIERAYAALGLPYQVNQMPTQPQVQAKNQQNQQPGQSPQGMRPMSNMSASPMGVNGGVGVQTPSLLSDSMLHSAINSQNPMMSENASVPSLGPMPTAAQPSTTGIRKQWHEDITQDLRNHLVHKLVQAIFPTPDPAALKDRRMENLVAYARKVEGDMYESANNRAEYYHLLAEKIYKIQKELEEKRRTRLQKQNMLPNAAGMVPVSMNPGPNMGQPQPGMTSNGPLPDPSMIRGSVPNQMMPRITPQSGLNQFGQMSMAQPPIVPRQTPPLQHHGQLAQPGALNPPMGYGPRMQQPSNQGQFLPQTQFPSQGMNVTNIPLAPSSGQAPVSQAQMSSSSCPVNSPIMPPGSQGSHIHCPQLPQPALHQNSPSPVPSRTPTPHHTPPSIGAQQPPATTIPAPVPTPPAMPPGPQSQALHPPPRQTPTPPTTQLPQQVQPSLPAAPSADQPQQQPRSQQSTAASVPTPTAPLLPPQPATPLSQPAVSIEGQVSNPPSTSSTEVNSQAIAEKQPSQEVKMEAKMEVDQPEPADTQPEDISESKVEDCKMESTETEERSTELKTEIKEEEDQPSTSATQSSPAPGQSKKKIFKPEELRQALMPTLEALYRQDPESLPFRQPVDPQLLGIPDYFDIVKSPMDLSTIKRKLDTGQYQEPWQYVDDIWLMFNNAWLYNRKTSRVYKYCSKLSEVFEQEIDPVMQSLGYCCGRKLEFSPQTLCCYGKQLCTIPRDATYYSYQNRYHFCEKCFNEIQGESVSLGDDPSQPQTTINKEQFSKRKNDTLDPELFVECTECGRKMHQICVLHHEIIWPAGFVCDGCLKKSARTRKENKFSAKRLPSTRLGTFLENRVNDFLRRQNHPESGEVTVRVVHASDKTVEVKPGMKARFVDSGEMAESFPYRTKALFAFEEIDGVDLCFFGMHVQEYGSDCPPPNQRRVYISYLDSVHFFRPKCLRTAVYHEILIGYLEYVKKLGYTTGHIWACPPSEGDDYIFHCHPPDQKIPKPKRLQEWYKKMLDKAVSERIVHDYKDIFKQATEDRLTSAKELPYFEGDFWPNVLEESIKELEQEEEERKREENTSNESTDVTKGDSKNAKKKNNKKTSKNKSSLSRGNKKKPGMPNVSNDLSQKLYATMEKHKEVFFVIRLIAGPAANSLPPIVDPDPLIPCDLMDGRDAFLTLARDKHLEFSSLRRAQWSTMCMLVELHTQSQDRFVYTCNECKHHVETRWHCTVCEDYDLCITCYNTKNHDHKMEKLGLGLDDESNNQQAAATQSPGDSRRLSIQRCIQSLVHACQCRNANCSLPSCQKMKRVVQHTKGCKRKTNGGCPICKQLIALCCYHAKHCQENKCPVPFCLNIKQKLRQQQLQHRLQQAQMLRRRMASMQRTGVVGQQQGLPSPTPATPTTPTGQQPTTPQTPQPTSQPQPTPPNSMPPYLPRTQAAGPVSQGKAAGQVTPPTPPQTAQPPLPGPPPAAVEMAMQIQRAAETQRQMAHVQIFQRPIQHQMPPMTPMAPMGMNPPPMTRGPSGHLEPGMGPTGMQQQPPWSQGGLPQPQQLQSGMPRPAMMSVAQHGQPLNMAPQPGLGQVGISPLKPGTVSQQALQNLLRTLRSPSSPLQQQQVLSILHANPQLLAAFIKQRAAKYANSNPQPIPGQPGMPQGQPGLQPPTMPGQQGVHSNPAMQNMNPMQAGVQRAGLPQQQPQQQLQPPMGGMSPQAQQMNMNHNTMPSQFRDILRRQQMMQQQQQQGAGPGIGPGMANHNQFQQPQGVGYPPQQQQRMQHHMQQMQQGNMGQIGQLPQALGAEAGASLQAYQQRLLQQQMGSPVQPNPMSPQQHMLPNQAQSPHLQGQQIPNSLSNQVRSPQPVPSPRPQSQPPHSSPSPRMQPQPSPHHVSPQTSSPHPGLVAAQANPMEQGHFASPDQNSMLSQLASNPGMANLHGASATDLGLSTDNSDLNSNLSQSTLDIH
Source text: The heterobifunctional compound-mediated p300 and CBP degradation was dependent on the ubiquitin-proteasome system and cullin E3 ligase. […] The binding with DDB1 also played a role in the heterobifunctional compounds ability to induce degradation of P300 and CBP proteins.

P300 [2] = target: T1, P300; assay: Immunoblot of P300 protein in LNCaP cells after compound treatment; format: cell-based
Description: (§2) Experiments were performed to see if heterobifunctional compounds as described herein could degrade target proteins. Specific exemplary heterobifunctional compounds were characterized in LNCaP and Calu-1 cells. LNCaP cells that express P300/CBP proteins were treated with heterobifunctional compounds disclosed herein (D-2, D-13, or D-7) at indicated concentrations for 8 hours. Cells were collected, lysed and subject to immunoblotting using an antibody specific to P300 or CBP proteins. Vinculin was included as the loading control. DMSO treatment was used as the negative control. […] In addition, LNCaP cells were treated with 500 nM of D-2, or D-13 for indicated period of time. Subsequently, changes in P300 and CBP protein levels were measured by immunoblotting.

CBP = CBP (Homo sapiens (Human), UniProt Q92793); assay: Immunoblot of CBP protein in LNCaP cells after compound treatment; format: cell-based
Description: as §2

LNCaP cells = assay: LNCaP cell viability (CellTiter-Glo); format: cell-based; settings: three days
Description: LNCaP cells seeded in 96-well plates were treated with 10 μM GNE-781 or selected heterobifunctional compounds, following a 12-point 3-fold serial dilution. Three days after treatment, cell viability was determined using the CellTiter-Glo Kit (Promega). Cell viability was normalized to the mean values of 3 replicates of untreated cells. Dose-dependent response was analyzed following the least-squares non-linear regression method using the GraphPad Prism software.

[3] = indicated concentrations, 8 hours, immunoblot

CDK6, sequence (Q00534 whole entry): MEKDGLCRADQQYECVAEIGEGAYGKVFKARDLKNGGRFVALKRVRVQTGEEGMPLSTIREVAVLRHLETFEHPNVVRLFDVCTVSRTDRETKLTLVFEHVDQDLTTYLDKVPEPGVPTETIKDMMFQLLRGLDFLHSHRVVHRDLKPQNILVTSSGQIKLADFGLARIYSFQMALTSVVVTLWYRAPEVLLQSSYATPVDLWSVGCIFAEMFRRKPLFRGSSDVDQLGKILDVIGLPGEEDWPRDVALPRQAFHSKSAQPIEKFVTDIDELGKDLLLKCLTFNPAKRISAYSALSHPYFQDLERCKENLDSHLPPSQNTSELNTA

Compound | degradation of CDK6 (CDK6) | degradation of CDK4 (CDK4) | Kd (Human DDB1) | compound-induced degradation under co-administration of MG-132 or bortezomib (BTZ), or MLN4924 (P300 [1]) | time at which significant degradation of P300 was detected (P300 [2]; 500 nM, time course) | P300 protein levels (P300 [2]; [3]) | time at which significant degradation of CBP was detected (CBP; 500 nM, time course) | CBP protein levels (CBP; [3]) | viability of LNCaP cells (LNCaP cells; 10 μM top, 12-point 3-fold serial dilution) | inhibitory effects on the growth of LNCaP cells compared to GNE-781 (LNCaP cells)
CC(=O)Nc1cc(NCCOCCOCCOCCOCCOCCOCCNC(=O)CN2CCN(c3ccc(Nc4ncc5c(C)c(C(C)=O)c(=O)n(C6CCCC6)c5n4)nc3)CC2)ccc1C(=O)Nc1nc(C)c([N+](=O)[O-])s1 [D-49, 2-Acetamido-4-((1-(4-(6-((6-acetyl-8-cyclopentyl-5-methyl-7-oxo-7,8-dihydropyrido[2,3-d]pyrimidin-2-yl)amino)pyridin-3-yl)piperazin-1-yl)-2-oxo-6,9,12,15,18,21-hexaoxa-3-azatricosan-23-yl)amino)-N-(4-methyl-5-nitrothiazol-2-yl)benzamide] | Significant degradation | Significant degradation | < 20 µM | – | – | – | – | – | – | –
CC(=O)Nc1cc(NCCOCCOCCOCCOCCOCCNC(=O)CN2CCN(c3ccc(Nc4ncc5c(C)c(C(C)=O)c(=O)n(C6CCCC6)c5n4)nc3)CC2)ccc1C(=O)Nc1nc(C)c([N+](=O)[O-])s1 [D-48, 2-Acetamido-4-((1-(4-(6-((6-acetyl-8-cyclopentyl-5-methyl-7-oxo-7,8-dihydropyrido[2,3-d]pyrimidin-2-yl)amino)pyridin-3-yl)piperazin-1-yl)-2-oxo-6,9,12,15,18-pentaoxa-3-azaicosan-20-yl)amino)-N-(4-methyl-5-nitrothiazol-2-yl)benzamide] | Significant degradation | Significant degradation | < 20 µM | – | – | – | – | – | – | –
CC(=O)Nc1cc(NCCCCNC(=O)CN2CCC(n3nc(N4CCCc5cc(-c6cnn(C)c6)c(C(F)F)cc54)c4c3CCN(C(C)=O)C4)CC2)ccc1C(=O)Nc1nc(C)c([N+](=O)[O-])s1 [D-2, 2-Acetamido-4-((4-(2-(4-(5-acetyl-3-(7-(difluoromethyl)-6-(1-methyl-1H-pyrazol-4-yl)-3,4-dihydroquinolin-1 (2H)-yl)-4,5,6,7-tetrahydro-1H-pyrazolo[4,3-c]pyridin-1-yl)piperidin-1-yl)acetamido)butyl)amino)-N-(4-methyl-5-nitrothiazol-2-yl)benzamide] | – | – | 20 to 100 µM | compromised | 2 to 4 h | significantly decreased in a concentration-dependent manner | 2 to 4 h | significantly decreased in a concentration-dependent manner | dose-dependently suppressed viability of LNCaP cells | more potent inhibitory effects
